“Also recorded” adds a separate entry of the source.
Assays:
[1] = target: αS fibrils in mouse brain lysate (Homo sapiens, UniProt P37840); assay: Photo-crosslinking and click labeling in mouse brain lysate; format: binding; conditions: 50 μM CLX2, 50 μM αS fibrils, 10 mg/ml lysate
From the text: Photo-crosslinking in Mouse Brain Lysate
Total Mouse Brain Protein Preparation. Mice were anesthetized using isoflurane gas in a closed chamber (AKORN, Lake Forest, IL, USA) followed by cervical dislocation. Brains were quickly dissected and snap-frozen in dry ice. Mouse brains were mechanically homogenized in five -fold excess (w/w) RIPA buffer (Thermo Fisher Scientific; Waltham, MA, USA ) using a ground glass tissue plunger. Homogenized sample was then subjected to probe sonication (Qsonica, Newtown, CT, USA) on ice using a microtip, at an amplitude of 50% at intervals of 10 s on 20 s off, for a total process-time (on-time) of 5 minutes. Crude lysate was then clarified by centrifugation at 10,000xg at 4 °C for 60 min. […] The lysate total protein concentration was then determined using the Bio-Rad detergent compatible (DC) protein assay […]
samples (50 µM final concentration), followed by “click -mix” (50 µM copper sulfate, 100 µM THPTA final concentration), sodium ascorbate (200 µM final concentration), and PBS to achieve a final volume of 200 µL. […] Samples were then analyzed via SDS-PAGE using a 4-12% Bis-Tris pre-cast gel (NuPAGE, Thermo Fisher Scientific). αS monomer labeled with BODIPY-FL maleimide (prepared as previously described13) was used as a control. […]

αS fibrils [2] = target: T1, αS fibrils (Homo sapiens, UniProt P37840); assay: Photo-crosslinking assay with MALDI-MS of tryptic digest; format: binding; conditions: 100 μM crosslinker, 365 nm irradiation, trypsin digest MALDI-MS
Description: Photo-crosslinking assay. Aggregations of αS prepared as described above were transferred to a clear glass vial to assist in photo -crosslinking, and compounds ClX1, ClX2, or DMSO (as a vehicle control) were delivered to their respective vials (100 μM final concentrations). The resulting fibril-crosslinker or fibril-DMSO mixture was incubated for 1 h at 37 °C, and thereafter irradiated with long wave UV from a TLC lamp (365 nm) for 1 h. The irradiated fibrils were then boiled in SDS (25 mM final concentration), and subjected to CHCl3/MeOH precipitation to remove excess detergent and buffer as previously described.2 The translucent brown protein pellet was then resuspended in 40 μL of sterilized, Milli-Q water. At this point, the whole protein sample was subjected to MALDI-MS analuysis by spotting 1 μL of sample in 1μL of sinapic acid matrix, prepared as a saturated solution in a 50:50 mixture of ACN:H2O with 0.1% TFA. The remaining sample was digested using trypsin (Promega Corporation) at 37 °C overnight (50 mM NH4CO3, 1 mM CaCl2, 1:50-1:100 protein:trypsin ratio). The resulting tryptic peptide mixture was diluted 1:10 in sterile water with 0.1% TFA, and analyzed via MALDI-MS by spotting 1 μL of sample in 1 μL of CHCA matrix or DHB matrix, prepared as saturated solutions in a 50:50 mixture of ACN:H2O with 0.1% TFA. […]

αS fibrils [3] = target: T1, αS fibrils
Description: (§1) αS (50 nM) or Aβ42 (100 nM) fibrils were incubated for 1 h at 37 °C with increasing concentrations of [^125I]61 in 50 mM Tris–HCl, pH 7.4, in a total volume of 150 μL. Nonspecific binding was determined in a duplicate set of binding reactions containing 2 μM non-radioactive 61. After incubation, bound and free radioligand were separated by vacuum filtration through Whatman GF/C filters in a 24-sample harvester system, followed by washing with buffer containing 10 mM Tris–HCl (pH 7.4) and 150 mM NaCl. Filters containing the bound ligand were counted immediately on 2470 WIZARD Automatic Gamma Counter. All data points were collected in triplicate. The equilibrium dissociation constant (Kd) and the maximal number of binding sites (Bmax) were determined by fitting the data to the equation Y = Bmax × X/(Kd + X), using GraphPad Prism software.
(§2) Saturation binding assay. αS (50 nM) or Ab42 (100 nM) fibrils were incubated for 1 h at 37 °C
(§3) with increasing concentrations of [125I]61 in 50 mM Tris-HCl, pH 7.4, in a total volume of 150
(§4) µL. Nonspecific binding was determined in a duplicate set of binding reactions containing 2 µM
unlabeled 61. To measure the amount of radioligand binding to the filter paper, fibrils were
replaced with equal volume of buffer in a duplicate set of binding reactions. After incubation,
bound and free radioligand were separated by vacuum filtration through Whatman GF/C filters
(Brandel) in a 24-sample harvester system (Brandel), followed by washing with buffer containing
10 mM Tris-HCl (pH 7.4) and 150 mM NaCl. Filters containing the bound ligand were counted
immediately on 2470 WIZARD Automatic Gamma Counter (Perkin Elmer). All data points were
acquired in triplicate. The equilibrium dissociation constant (Kd) and the maximal number of
binding sites (Bmax) were determined by globally fitting the total binding and nonspecific binding
Y = Bmax*[X/(Kd+X)] + NS*X (S2)
where X is the concentration of ligand ([125I]61) and NS is nonspecific binding, using GraphPad
Prism software (San Diego, CA, USA).

Aβ42 fibrils = Aβ42 fibrils (Homo sapiens, UniProt P05067)
Sequence of Aβ42 fibrils (P05067 672-713 limits assumed): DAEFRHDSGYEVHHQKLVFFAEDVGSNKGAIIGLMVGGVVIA
Description: as §1, §2, §3, §4
unlabeled 61. To measure the amount of radioligand binding to the filter paper, fibrils were […]
10 mM Tris-HCl (pH 7.4) and 150 mM NaCl. Filters containing the bound ligand were counted […]
binding sites (Bmax) were determined by globally fitting the total binding and nonspecific binding […]

[4] = system: A53T and control mouse brain sections; format: binding

SMILES	Binding by crosslinking and fluorescent azide labeling in mouse brain lysate [1]	Crosslinked site / peptide fragment on αS fibrils (αS fibrils [2])	Kd (αS fibrils [3]) [nM]	Levels of non-specific binding (αS fibrils [3]; saturation binding experiments)	Kd (Aβ42 fibrils) [nM]	Autoradiography signal in whole brain sections [4]
C#CCCC1(CCOc2ccc(OCC(=O)Nc3cc(-c4ccc(I)cc4)no3)cc2)N=N1 [ClX2]	binding to αS fibrils, but also to many other proteins in mouse brain lysate	residues 22-34; also recorded: Site 2	–	–	–	–
Cc1ccc(OCC(=O)Nc2cc(-c3ccc([125I])cc3)no2)cc1C [[^125I]61]	–	–	1.06	relatively high	4.56	increased signal in A53T mouse brain in αS-rich regions compared with the control

Reference: paper PMC8047729, “Identification of a nanomolar affinity α-synuclein fibril imaging probe by ultra-high throughput in silico screening” (Chemical Science, 2020)
